Data published in patent publication US20210045385A1, “PYRIDAZINONE-SUBSTITUTED KETOXIMES AS HERBICIDES” (FMC Corporation, priority 2018, published 2021).

How the values were obtained:
Type in all cases: in vivo
[1] = test system: ragweed (common ragweed, Ambrosia elatior); test: Test A preemergence, visual plant response rating; conditions: for Ragweed plant response rating: 125 g ai/ha, preemergence, 0 to 100 scale, 0 no effect, 100 complete control; for Ragweed plant response rating (0 to 100 scale): 500 g ai/ha Preemergence, approx. 10 days
Summary of the method: (§1)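 Ratings use a 0–100 visual scale (100 = complete control) against untreated controls, scored about 10 days after greenhouse treatment. Test chemicals were formulated in surfactant-containing non-phytotoxic solvent and applied either as soil spray after planting (preemergence) or onto one- to two-leaf, 2–10 cm plants (postemergence).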

kochia (Kochia scoparia) [2] = test: Test A preemergence, visual plant response rating; conditions: for Kochia plant response rating: 125 g ai/ha, preemergence, 0 to 100 scale, 0 no effect, 100 complete control; for Kochia plant response rating (0 to 100 scale): 500 g ai/ha Preemergence, approx. 10 days
Summary of the method: as §1

[3] = test system: foxtail, giant (giant foxtail, Setaria faberii); test: Test A preemergence, visual plant response rating; conditions: for Foxtail, Giant plant response rating: 125 g ai/ha, preemergence, 0 to 100 scale, 0 no effect, 100 complete control; for Foxtail, Giant plant response rating (0 to 100 scale): 500 g ai/ha Preemergence, approx. 10 days
Summary of the method: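 Greenhouse pot test in loam–sand soil mix: compound in a surfactant-containing non-phytotoxic solvent applied preemergence (directed soil spray) or postemergence (one- to two-leaf plants, 2–10 cm). Injury scored visually after ~10 days, 0–100.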

[4] = test system: barnyardgrass (Echinochloa crus-galli); test: Test A preemergence, visual plant response rating; conditions: for Barnyardgrass plant response rating: 125 g ai/ha, preemergence, 0 to 100 scale, 0 no effect, 100 complete control; for Barnyardgrass plant response rating (0 to 100 scale): 500 g ai/ha Preemergence, approx. 10 days
Summary of the method: as §1

[5] = test system: Italian ryegrass (Lolium multiflorum); test: Test A preemergence, visual plant response rating; conditions: for Ryegrass, Italian plant response rating: 125 g ai/ha, preemergence, 0 to 100 scale, 0 no effect, 100 complete control; for Ryegrass, Italian plant response rating (0 to 100 scale): 500 g ai/ha Preemergence, approx. 10 days
Summary of the method: as §1

[6] = test system: pigweed (Amaranthus retroflexus); test: Test A preemergence, visual plant response rating; conditions: for Pigweed plant response rating: 125 g ai/ha, preemergence, 0 to 100 scale, 0 no effect, 100 complete control; for Pigweed plant response rating (0 to 100 scale): 500 g ai/ha Preemergence, approx. 10 days
Summary of the method: as §1

[7] = test system: sedge, umbrella (small-flower umbrella sedge, Cyperus difformis); test: Test B flooded paddy test, visual plant response rating; conditions: 250 g ai/ha, Flood, applied to paddy water, 2-leaf stage, evaluated after 13 to 15 days
Summary of the method: (§2)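 Flooded-pot treatment: water 3 cm over the soil, chemical delivered into that water, depth unchanged for the duration. Assessed by eye versus controls following 13–15 greenhouse days; plants were at 2 leaves when dosed.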

rice (Oryza sativa) = test: as above; conditions: 250 g ai/ha, Flood, applied to paddy water, 2-leaf stage, evaluated after 13 to 15 days
Summary of the method: as §2

[8] = test system: barnyardgrass (Echinochloa crus-galli); test: as above; conditions: 250 g ai/ha, Flood, applied to paddy water, 2-leaf stage, evaluated after 13 to 15 days
Summary of the method: as §2

[9] = test system: ducksalad (Heteranhera limosa); test: as above; conditions: 250 g ai/ha, Flood, applied to paddy water, 2-leaf stage, evaluated after 13 to 15 days
Summary of the method: as §2

[10] = test system: ragweed (common ragweed, Ambrosia elatior); test: Test A postemergence, visual plant response rating; conditions: for Ragweed plant response rating (0 to 100 scale): 500 g ai/ha, postemergence, 0 is no effect, 100 is complete control; for Ragweed plant response rating: Postemergence, 125 g ai/ha, 0 to 100 scale (0 no effect, 100 complete control)
Summary of the method: as §1

[11] = test system: galium (catchweed bedstraw, Galium aparine); test: Test A postemergence, visual plant response rating; conditions: for Galium plant response rating (0 to 100 scale): 500 g ai/ha, postemergence, 0 is no effect, 100 is complete control; for Galium plant response rating: Postemergence, 125 g ai/ha, 0 to 100 scale (0 no effect, 100 complete control)
Summary of the method: as §1

[12] = test system: blackgrass (Alopecurus myosuroides); test: Test A postemergence, visual plant response rating; conditions: for Blackgrass plant response rating (0 to 100 scale): 500 g ai/ha, postemergence, 0 is no effect, 100 is complete control; for Blackgrass plant response rating: Postemergence, 125 g ai/ha, 0 to 100 scale (0 no effect, 100 complete control)
Summary of the method: as §1

corn (Zea mays) = test: Test A postemergence, visual plant response rating; conditions: for Corn plant response rating (0 to 100 scale): 500 g ai/ha, postemergence, 0 is no effect, 100 is complete control; for Corn plant response rating: Postemergence, 125 g ai/ha, 0 to 100 scale (0 no effect, 100 complete control)
Summary of the method: as §1

kochia (Kochia scoparia) [13] = test: Test A postemergence, visual plant response rating; conditions: for Kochia plant response rating (0 to 100 scale): 500 g ai/ha, postemergence, 0 is no effect, 100 is complete control; for Kochia plant response rating: Postemergence, 125 g ai/ha, 0 to 100 scale (0 no effect, 100 complete control)
Summary of the method: as §1

[14] = test system: foxtail, giant (giant foxtail, Setaria faberii); test: Test A postemergence, visual plant response rating; conditions: for Foxtail, Giant plant response rating (0 to 100 scale): 500 g ai/ha, postemergence, 0 is no effect, 100 is complete control; for Foxtail, Giant plant response rating: Postemergence, 125 g ai/ha, 0 to 100 scale (0 no effect, 100 complete control)
Summary of the method: as §1

[15] = test system: wheat (Triticum aestivum); test: Test A postemergence, visual plant response rating; conditions: for Wheat plant response rating (0 to 100 scale): 500 g ai/ha, postemergence, 0 is no effect, 100 is complete control; for Wheat plant response rating: Postemergence, 125 g ai/ha, 0 to 100 scale (0 no effect, 100 complete control)
Summary of the method: as §1

[16] = test system: barnyardgrass (Echinochloa crus-galli); test: Test A postemergence, visual plant response rating; conditions: for Barnyardgrass plant response rating (0 to 100 scale): 500 g ai/ha, postemergence, 0 is no effect, 100 is complete control; for Barnyardgrass plant response rating: Postemergence, 125 g ai/ha, 0 to 100 scale (0 no effect, 100 complete control)
Summary of the method: as §1

[17] = test system: Italian ryegrass (Lolium multiflorum); test: Test A postemergence, visual plant response rating; conditions: for Ryegrass, Italian plant response rating (0 to 100 scale): 500 g ai/ha, postemergence, 0 is no effect, 100 is complete control; for Ryegrass, Italian plant response rating: Postemergence, 125 g ai/ha, 0 to 100 scale (0 no effect, 100 complete control)
Summary of the method: as §1

[18] = test system: pigweed (Amaranthus retroflexus); test: Test A postemergence, visual plant response rating; conditions: for Pigweed plant response rating (0 to 100 scale): 500 g ai/ha, postemergence, 0 is no effect, 100 is complete control; for Pigweed plant response rating: Postemergence, 125 g ai/ha, 0 to 100 scale (0 no effect, 100 complete control)
Summary of the method: as §1

Row | Structure (SMILES) | Ragweed plant response rating [1] | Ragweed plant response rating (0 to 100 scale) [1] | Kochia plant response rating (kochia (Kochia scoparia) [2]) | Kochia plant response rating (0 to 100 scale) (kochia (Kochia scoparia) [2]) | Foxtail, Giant plant response rating [3] | Foxtail, Giant plant response rating (0 to 100 scale) [3] | Barnyardgrass plant response rating [4] | Barnyardgrass plant response rating (0 to 100 scale) [4] | Ryegrass, Italian plant response rating [5] | Ryegrass, Italian plant response rating (0 to 100 scale) [5] | Pigweed plant response rating [6] | Pigweed plant response rating (0 to 100 scale) [6] | Plant response rating, Sedge, Umbrella (0 to 100 scale, 0 is no effect, 100 is complete control) [7] | Plant response rating, Rice (0 to 100 scale, 0 is no effect, 100 is complete control) (rice (Oryza sativa)) | Plant response rating, Barnyardgrass (0 to 100 scale, 0 is no effect, 100 is complete control) [8] | Plant response rating, Ducksalad (0 to 100 scale, 0 is no effect, 100 is complete control) [9] | Ragweed plant response rating (0 to 100 scale) [10] | Ragweed plant response rating [10] | Galium plant response rating (0 to 100 scale) [11] | Galium plant response rating [11] | further results
1 | CCc1cccc(/C(=N\OC)c2c(O)c(C)nn(C)c2=O)c1 [Compound 68] | 20 | 50 | 10 | 40 | 0 | 20 | 0 | 0 | 30 | 60 | 50 | 80 | 0 | 0 | 0 | 0 | 90 | 70 | 70 | 60 | Blackgrass plant response rating (0 to 100 scale) [12]: 30; Blackgrass plant response rating [12]: 30; Corn plant response rating (0 to 100 scale) (corn (Zea mays)): 0; Corn plant response rating (corn (Zea mays)): 0; Kochia plant response rating (0 to 100 scale) (kochia (Kochia scoparia) [13]): 80; Kochia plant response rating (kochia (Kochia scoparia) [13]): 70; Foxtail, Giant plant response rating (0 to 100 scale) [14]: 10; Foxtail, Giant plant response rating [14]: 0; Wheat plant response rating (0 to 100 scale) [15]: 0; Wheat plant response rating [15]: 0; Barnyardgrass plant response rating (0 to 100 scale) [16]: 0; Barnyardgrass plant response rating [16]: 0; Ryegrass, Italian plant response rating (0 to 100 scale) [17]: 30; Ryegrass, Italian plant response rating [17]: 20; Pigweed plant response rating (0 to 100 scale) [18]: 80; Pigweed plant response rating [18]: 30
2 | C#CCO/N=C(/c1c(O)c(C)nn(C)c1=O)c1cccc2ccccc12 [Compound 82, 5-hydroxy-2,6-dimethyl-4-[(E)-[(2-propyn-1-yloxy)imino]-1-naphthalenylmethyl]-3(2H)-pyridazinone] | 90 | 100 | 10 | 80 | 100 | 100 | 60 | 100 | 90 | 100 | 100 | 100 | 0 | 0 | 0 | 0 | 100 | 90 | 100 | 90 | Blackgrass plant response rating (0 to 100 scale) [12]: 100; Blackgrass plant response rating [12]: 90; Corn plant response rating (0 to 100 scale) (corn (Zea mays)): 30; Corn plant response rating (corn (Zea mays)): 0; Kochia plant response rating (0 to 100 scale) (kochia (Kochia scoparia) [13]): 90; Kochia plant response rating (kochia (Kochia scoparia) [13]): 80; Foxtail, Giant plant response rating (0 to 100 scale) [14]: 80; Foxtail, Giant plant response rating [14]: 70; Wheat plant response rating (0 to 100 scale) [15]: 80; Wheat plant response rating [15]: 50; Barnyardgrass plant response rating (0 to 100 scale) [16]: 80; Barnyardgrass plant response rating [16]: 50; Ryegrass, Italian plant response rating (0 to 100 scale) [17]: 80; Ryegrass, Italian plant response rating [17]: 80; Pigweed plant response rating (0 to 100 scale) [18]: 90; Pigweed plant response rating [18]: 70
